Patent US10626136B2, “Compositions and methods for improving Rebaudioside X solubility” (The Coca-Cola Company, priority 2012, dated 2020)
One block for each compound: values may come before it.

Key:
Assay type in all cases: physicochemical
[1] = Approximate water solubility by solvent addition method (aliquots of water, visual inspection)
Method: The approximate aqueous solubility can be determined by a solvent addition method in which a weighed sample is treated with aliquots of water. The mixture is generally vortexed and/or sonicated between additions to facilitate dissolution. Complete dissolution of the test material is determined by visual inspection. Solubility is estimated based on the total solvent used to provide complete dissolution.
(§1) The approximate water solubility of Form A and amorphous Rebaudioside X were determined by a solvent addition method in which a weighed sample was treated with aliquots of water. The mixture was generally vortexed and/or sonicated between additions to facilitate dissolution. Complete dissolution of the test material was determined by visual inspection. Solubility was estimated based on the total solvent used to provide complete dissolution. The actual solubility may be greater than the value calculated because of the use of solvent aliquots that were too large or due to a slow rate of dissolution.
as §1, with “approximate” for “approximate water”, “the complexes was measured” for “Form A and amorphous Rebaudioside X were determined”

[2] = Water solubility of material before and after the water process (Example 4); conditions: Example 4, before and after heating to 121° C. in water and spray drying
[3] = Equilibrium solubility in water by UV (205 nm)
Method: Samples were analyzed with a Cary 50 UV-Vis dual beam spectrophotometer. The detector was zeroed with a cuvette filled with water prior to sample analysis. Samples were analyzed at room temperature in 1.0 cm quartz cuvette using a scan rate of 600 nm/min in a range of 200-400 nm.
25.8 mg of amorphous Rebaudioside X was added to a 10-mL volumetric flask and dissolved 10 mL with water. This stock solution was diluted to five concentration levels for UV measurement.
A calibration curve at 205 nm was established (Abs at 205 nm vs. concentration) to provide the equation y=5.0625x+0.0022. R^2 was 0.9999. This equation was used for the subsequent determination of Rebaudioside X concentrations.
250 mg of amorphous Rebaudioside X was added to an amber vial and 10 mL of water was added. The mixture was stirred at room temperature about 10 minutes to yield a transparent solution with only small amount of solid remaining. The mixture became opaque rapidly. The mixture was placed on a mechanical oscillator set at a speed of 250 and 25° C. At the sampling time point of 1, 16, 24, 48, 72, 96, and 192 hours, an aliquot of the slurry was transferred to a centrifuge tube and separated at a speed of 16K rcf for 15 minutes. 200 μL of the clear supernatant was transferred to a 50-mL volumetric flask, 10 mL of water was added and mixed well before UV analysis.

[4] = Dynamic Vapor Sorption (DVS)
Method: The Dynamic Vapor Sorption (DVS) DVS data were collected on a VTI SGA-100 Vapor Sorption Analyzer. NaCl and PVP were used as calibration standards. The sample was not dried prior to analysis. Sorption and desorption data were collected over a range from 5 to 95% RH at 10% RH increments under a nitrogen purge. The equilibrium criterion used for analysis was less than 0.0100% weight change in 5 minutes with a maximum equilibration time of 3 hours. Data were not corrected for the initial moisture content of the samples.

[5] = Duration of clarity of aqueous solutions, with or without filtration
Source text: The water solubility of amorphous Rebaudioside X prepared according to Example 4 was compared in various test material/water ratios with or without filtration prior to solubility determination. Generally, filtration performed after dissolution of sample assist the duration of clarity of the sample (or delays the precipitation/recrystallization of sample).

Approximate Water Solubility [1]: >10000 µg/mL
SMILES: C=C1C[C@@]23CCC4[C@](C)(C(=O)OC5OC(CO)C(O)C(OC6OC(CO)C(O)C(O)C6O)C5OC5OC(CO)C(O)C(O)C5O)CCC[C@@]4(C)[C@@H]2CCC1(OC1OC(CO)C(O)C(OC2OC(CO)C(O)C(O)C2O)C1OC1OC(CO)C(O)C(O)C1O)C3 (stereo partly drawn) [Amorphous (ethanol process)]

Approximate Water Solubility [1]: >10000 µg/mL
SMILES: C=C1C[C@@]23CCC4[C@](C)(C(=O)OC5OC(CO)C(O)C(OC6OC(CO)C(O)C(O)C6O)C5OC5OC(CO)C(O)C(O)C5O)CCC[C@@]4(C)[C@@H]2CCC1(OC1OC(CO)C(O)C(OC2OC(CO)C(O)C(O)C2O)C1OC1OC(CO)C(O)C(O)C1O)C3 (stereo partly drawn) [Amorphous (water process)]

Approximate Water Solubility [1]: 1400 µg/mL
approximate aqueous solubility [1]: 0.1 to about 0.14
water solubility ([2]; listed as Form A Rebaudioside X): 0.05%
SMILES: C=C1C[C@@]23CCC4[C@](C)(C(=O)OC5OC(CO)C(O)C(OC6OC(CO)C(O)C(O)C6O)C5OC5OC(CO)C(O)C(O)C5O)CCC[C@@]4(C)[C@@H]2CCC1(OC1OC(CO)C(O)C(OC2OC(CO)C(O)C(O)C2O)C1OC1OC(CO)C(O)C(O)C1O)C3 (stereo partly drawn) [Form A]

Average Sample Concentration ([3]; 250 mg in 10 mL water, 25° C.): Average Sample Concentration = 2.6 mg/mL
Original Sample Concentration ([3]; 250 mg in 10 mL water, 25° C., sampling time 1 hrs): 5.8 mg/mL
Original Sample Concentration ([3]; 250 mg in 10 mL water, 25° C., sampling time 16 hrs): 2.7 mg/mL
Original Sample Concentration ([3]; 250 mg in 10 mL water, 25° C., sampling time 24 hrs): 2.6 mg/mL
Original Sample Concentration ([3]; 250 mg in 10 mL water, 25° C., sampling time 48 hrs): 2.5 mg/mL
Original Sample Concentration ([3]; 250 mg in 10 mL water, 25° C., sampling time 72 hrs): 2.8 mg/mL
Original Sample Concentration ([3]; 250 mg in 10 mL water, 25° C., sampling time 96 hrs): 2.8 mg/mL
Original Sample Concentration ([3]; 250 mg in 10 mL water, 25° C., sampling time 192 hrs): 2.6 mg/mL
approximate aqueous solubility [1]: greater than 0.3%
approximate water solubility compared to Form A Rebaudioside X [1]: substantially increased
solids recovered after DVS ([4]; XRPD after the DVS analysis): x-ray amorphous
weight loss upon desorption ([4]; desorption from 95% to 5% RH): 26.0 wt %
weight loss upon equilibration ([4]; equilibration at 5% RH): 3.1 wt %
weight gain on sorption ([4]; increasing the relative humidity from 5% to 95% RH): 26.3 wt %
hygroscopicity ([4]; judged from the large weight change): hygroscopic
water solubility [2]: greater than 1%
Duration of Clarity of Sample ([5]; Sample 1: 250 mg/500 mL water, not filtered): >60 days
Duration of Clarity of Sample ([5]; Sample 2: 500 mg/500 mL water, not filtered): >60 days
Duration of Clarity of Sample ([5]; Sample 6: 1750 mg/500 mL water, not filtered): ~0.12 days
Duration of Clarity of Sample ([5]; Sample 8: 1000 mg/100 mL water, filtered (0.22 μm membrane)): ~0.083 days
SMILES: C=C1C[C@@]23CC[C@H]4[C@@](C)(CCC[C@@]4(C)C(=O)O[C@@H]4O[C@H](CO)[C@@H](O)[C@H](O[C@@H]5O[C@H](CO)[C@@H](O)[C@H](O)[C@H]5O)[C@H]4O[C@@H]4O[C@H](CO)[C@@H](O)[C@H](O)[C@H]4O)[C@@H]2CC[C@]1(O[C@@H]1O[C@H](CO)[C@@H](O)[C@H](O[C@@H]2O[C@H](CO)[C@@H](O)[C@H](O)[C@H]2O)[C@H]1O[C@@H]1O[C@H](CO)[C@@H](O)[C@H](O)[C@H]1O)C3 [amorphous Rebaudioside X]
XRPD pattern of the solids recovered after solubility testing ([3]; after 8 days solubility testing in water): consistent with Form A, indicating conversion
Duration of Clarity of Sample ([5]; Sample 4: 1000 mg/500 mL water, not filtered): ^bMost Rebaudioside X dissolved quickly. However, a small amount of floating particles remained.
